Test results published in ChEMBL document CHEMBL1157917, “Structure-based rational design, synthesis and antifungal activity of oxime-containing azole derivatives” (2010).
≈ marks a conversion by molar mass, not a printed value.

Key:
Type in all cases: functional
Cryptococcus neoformans = experiment: Antifungal activity against Cryptococcus neoformans after 72 hrs by serial dilution method
Candida albicans = experiment: Antifungal activity against Candida albicans after 24 hrs by serial dilution method
Candida parapsilosis = experiment: Antifungal activity against Candida parapsilosis after 24 hrs by serial dilution method; settings: Lodderomyces parapsilosis
Candida tropicalis = experiment: Antifungal activity against Candida tropicalis after 24 hrs by serial dilution method
Pichia kudriavzevii = experiment: Antifungal activity against Candida krusei after 24 hrs by serial dilution method
Trichophyton rubrum = experiment: Antifungal activity against Trichophyton rubrum after 7 days by serial dilution method; settings: 168 h
Aspergillus fumigatus = experiment: Antifungal activity against Aspergillus fumigatus after 7 days by serial dilution method; settings: 168 h

Row | Compound | MIC80 (Cryptococcus neoformans) [µg/mL] | MIC80 (Candida albicans) [µg/mL] | MIC80 (Candida parapsilosis) [µg/mL] | MIC80 (Candida tropicalis) [µg/mL] | MIC80 (Pichia kudriavzevii) [µg/mL] | MIC80 (Trichophyton rubrum) [µg/mL] | MIC80 (Aspergillus fumigatus) [µg/mL]
1 | OC(CN1CCC(=NOCc2ccccc2)CC1)(Cn1cncn1)c1ccc(F)cc1F (racemic) | 0.016 (≈ 0.0362 µM) | 0.004 (≈ 0.00906 µM) | 0.004 (≈ 0.00906 µM) | 0.001 (≈ 0.00227 µM) | 0.0625 (≈ 0.142 µM) | 0.0625 (≈ 0.142 µM) | 1 (≈ 2.27 µM)
2 | OC(CN1CCC(=NOCc2ccc(C(F)(F)F)cc2)CC1)(Cn1cncn1)c1ccc(F)cc1F (racemic) | 16 (≈ 31.4 µM) | 16 (≈ 31.4 µM) | 64 (≈ 126 µM) | 64 (≈ 126 µM) | 64 (≈ 126 µM) | 16 (≈ 31.4 µM) | 64 (≈ 126 µM)
3 | COc1cccc(CON=C2CCN(CC(O)(Cn3cncn3)c3ccc(F)cc3F)CC2)c1 (racemic) | 16 (≈ 33.9 µM) | 16 (≈ 33.9 µM) | 64 (≈ 136 µM) | 64 (≈ 136 µM) | 64 (≈ 136 µM) | 16 (≈ 33.9 µM) | 64 (≈ 136 µM)
4 | OC(Cn1cncn1)(Cn1cncn1)c1ccc(F)cc1F [FLUCONAZOLE] | 0.0625 (≈ 0.204 µM) | 0.25 (≈ 0.816 µM) | 0.25 (≈ 0.816 µM) | 1 (≈ 3.27 µM) | 1 (≈ 3.27 µM) | 1 (≈ 3.27 µM) | > 64
5 | OC(CN1CCC(=NOCc2cccc3ccccc23)CC1)(Cn1cncn1)c1ccc(F)cc1F (racemic) | 0.0625 (≈ 0.127 µM) | 0.0625 (≈ 0.127 µM) | 0.0625 (≈ 0.127 µM) | 0.25 (≈ 0.509 µM) | 4 (≈ 8.14 µM) | 0.25 (≈ 0.509 µM) | 1 (≈ 2.03 µM)
6 | OC(CN1CCC(=NOCc2ccc(F)cc2)CC1)(Cn1cncn1)c1ccc(F)cc1F (racemic) | 0.016 (≈ 0.0348 µM) | 0.016 (≈ 0.0348 µM) | 0.004 (≈ 0.00871 µM) | 0.0097 (≈ 0.0211 µM) | 0.25 (≈ 0.544 µM) | 0.0625 (≈ 0.136 µM) | 1 (≈ 2.18 µM)
7 | CCc1ccc(CON=C2CCN(CC(O)(Cn3cncn3)c3ccc(F)cc3F)CC2)cc1 (racemic) | 16 (≈ 34.1 µM) | 16 (≈ 34.1 µM) | 64 (≈ 136 µM) | 64 (≈ 136 µM) | 64 (≈ 136 µM) | 16 (≈ 34.1 µM) | 64 (≈ 136 µM)
8 | OC(CN1CCC(=NOCc2ccc(Cl)cc2)CC1)(Cn1cncn1)c1ccc(F)cc1F (racemic) | 0.001 (≈ 0.0021 µM) | 0.0625 (≈ 0.131 µM) | 0.016 (≈ 0.0336 µM) | 0.0625 (≈ 0.131 µM) | 0.25 (≈ 0.525 µM) | 0.0625 (≈ 0.131 µM) | 1 (≈ 2.1 µM)
9 | OC(CN1CCC(=NOCc2ccccc2Br)CC1)(Cn1cncn1)c1ccc(F)cc1F (racemic) | 0.004 (≈ 0.00769 µM) | 0.016 (≈ 0.0307 µM) | 0.0625 (≈ 0.12 µM) | 0.004 (≈ 0.00769 µM) | 0.25 (≈ 0.48 µM) | 0.0625 (≈ 0.12 µM) | 1 (≈ 1.92 µM)
10 | ON=C1CCN(CC(O)(Cn2cncn2)c2ccc(F)cc2F)CC1 (configuration not stated) | 1 (≈ 2.85 µM) | 1 (≈ 2.85 µM) | 16 (≈ 45.5 µM) | 1 (≈ 2.85 µM) | 4 (≈ 11.4 µM) | 16 (≈ 45.5 µM) | > 64
11 | OC(CN1CCC(=NOCc2ccc(Cl)cc2Cl)CC1)(Cn1cncn1)c1ccc(F)cc1F (racemic) | 0.016 (≈ 0.0313 µM) | 0.016 (≈ 0.0313 µM) | 0.016 (≈ 0.0313 µM) | 0.016 (≈ 0.0313 µM) | 0.25 (≈ 0.49 µM) | 0.0625 (≈ 0.122 µM) | 4 (≈ 7.84 µM)
12 | COc1ccc(CON=C2CCN(CC(O)(Cn3cncn3)c3ccc(F)cc3F)CC2)cc1 (racemic) | 4 (≈ 8.48 µM) | 1 (≈ 2.12 µM) | 4 (≈ 8.48 µM) | 4 (≈ 8.48 µM) | 4 (≈ 8.48 µM) | 4 (≈ 8.48 µM) | 64 (≈ 136 µM)
13 | OC(CN1CCC(=NOCc2ccc(Cl)c(Cl)c2)CC1)(Cn1cncn1)c1ccc(F)cc1F (racemic) | 0.0625 (≈ 0.122 µM) | 0.25 (≈ 0.49 µM) | 0.25 (≈ 0.49 µM) | 0.25 (≈ 0.49 µM) | 0.25 (≈ 0.49 µM) | 0.0625 (≈ 0.122 µM) | 1 (≈ 1.96 µM)
14 | CCC(C)n1ncn(-c2ccc(N3CCN(c4ccc(OCC5COC(Cn6cncn6)(c6ccc(Cl)cc6Cl)O5)cc4)CC3)cc2)c1=O (configuration not stated) [ITRACONAZOLE] | 0.004 (≈ 0.00567 µM) | 0.016 (≈ 0.0227 µM) | 0.0625 (≈ 0.0886 µM) | 0.0625 (≈ 0.0886 µM) | 0.25 (≈ 0.354 µM) | 0.004 (≈ 0.00567 µM) | 1 (≈ 1.42 µM)
15 | OC(CN1CCC(=NOCc2ccc3ccccc3c2)CC1)(Cn1cncn1)c1ccc(F)cc1F (racemic) | 0.016 (≈ 0.0326 µM) | 0.016 (≈ 0.0326 µM) | 0.016 (≈ 0.0326 µM) | 0.016 (≈ 0.0326 µM) | 0.25 (≈ 0.509 µM) | 0.0625 (≈ 0.127 µM) | 1 (≈ 2.03 µM)
16 | OC(CN1CCC(=NOCc2cccc(Cl)c2)CC1)(Cn1cncn1)c1ccc(F)cc1F (racemic) | 0.001 (≈ 0.0021 µM) | 0.016 (≈ 0.0336 µM) | 0.0625 (≈ 0.131 µM) | 0.0625 (≈ 0.131 µM) | 0.25 (≈ 0.525 µM) | 0.016 (≈ 0.0336 µM) | 1 (≈ 2.1 µM)

Row | Compound | MIC80 (Cryptococcus neoformans) [µg/mL] | MIC80 (Candida albicans) [µg/mL] | MIC80 (Candida parapsilosis) [µg/mL] | MIC80 (Candida tropicalis) [µg/mL] | MIC80 (Pichia kudriavzevii) [µg/mL] | MIC80 (Trichophyton rubrum) [µg/mL] | MIC80 (Aspergillus fumigatus) [µg/mL]
17 | N#Cc1ccc(CON=C2CCN(CC(O)(Cn3cncn3)c3ccc(F)cc3F)CC2)cc1 (racemic) | 0.016 (≈ 0.0343 µM) | 0.0625 (≈ 0.134 µM) | 0.0625 (≈ 0.134 µM) | 0.0625 (≈ 0.134 µM) | 0.25 (≈ 0.536 µM) | 0.0625 (≈ 0.134 µM) | 1 (≈ 2.14 µM)
18 | OC(CN1CCC(=NOCc2ccccc2F)CC1)(Cn1cncn1)c1ccc(F)cc1F (racemic) | 0.004 (≈ 0.00871 µM) | 0.016 (≈ 0.0348 µM) | 0.0625 (≈ 0.136 µM) | 0.001 (≈ 0.00218 µM) | 0.25 (≈ 0.544 µM) | 0.0625 (≈ 0.136 µM) | 1 (≈ 2.18 µM)
19 | C=Cc1ccc(CON=C2CCN(CC(O)(Cn3cncn3)c3ccc(F)cc3F)CC2)cc1 (racemic) | 16 (≈ 34.2 µM) | 16 (≈ 34.2 µM) | 64 (≈ 137 µM) | 64 (≈ 137 µM) | 64 (≈ 137 µM) | 16 (≈ 34.2 µM) | 64 (≈ 137 µM)
20 | CCCc1ccc(CON=C2CCN(CC(O)(Cn3cncn3)c3ccc(F)cc3F)CC2)cc1 (racemic) | 16 (≈ 33.1 µM) | 16 (≈ 33.1 µM) | 64 (≈ 132 µM) | 64 (≈ 132 µM) | 64 (≈ 132 µM) | 4 (≈ 8.27 µM) | 64 (≈ 132 µM)
21 | OC(CN1CCC(=NOCc2ccc(Br)cc2)CC1)(Cn1cncn1)c1ccc(F)cc1F (racemic) | 0.016 (≈ 0.0307 µM) | 0.016 (≈ 0.0307 µM) | 0.016 (≈ 0.0307 µM) | 0.004 (≈ 0.00769 µM) | 0.25 (≈ 0.48 µM) | 0.016 (≈ 0.0307 µM) | 1 (≈ 1.92 µM)
22 | Cc1ccc(CON=C2CCN(CC(O)(Cn3cncn3)c3ccc(F)cc3F)CC2)cc1 (racemic) | 16 (≈ 35.1 µM) | 64 (≈ 141 µM) | 64 (≈ 141 µM) | 64 (≈ 141 µM) | 16 (≈ 35.1 µM) | 16 (≈ 35.1 µM) | 64 (≈ 141 µM)
23 | OC(CN1CCC(=NOCc2cccc(F)c2)CC1)(Cn1cncn1)c1ccc(F)cc1F (racemic) | 0.016 (≈ 0.0348 µM) | 0.016 (≈ 0.0348 µM) | 0.016 (≈ 0.0348 µM) | 0.016 (≈ 0.0348 µM) | 0.25 (≈ 0.544 µM) | 0.0625 (≈ 0.136 µM) | 0.25 (≈ 0.544 µM)
24 | C[C@@H](c1ncncc1F)[C@](O)(Cn1cncn1)c1ccc(F)cc1F [VORICONAZOLE] | 0.004 (≈ 0.0115 µM) | 0.004 (≈ 0.0115 µM) | 0.004 (≈ 0.0115 µM) | 0.004 (≈ 0.0115 µM) | 0.016 (≈ 0.0458 µM) | 0.004 (≈ 0.0115 µM) | 0.0625 (≈ 0.179 µM)
25 | Cc1ccccc1CON=C1CCN(CC(O)(Cn2cncn2)c2ccc(F)cc2F)CC1 (racemic) | 64 (≈ 141 µM) | 16 (≈ 35.1 µM) | 64 (≈ 141 µM) | 64 (≈ 141 µM) | 64 (≈ 141 µM) | 16 (≈ 35.1 µM) | 64 (≈ 141 µM)
26 | Cc1cccc(CON=C2CCN(CC(O)(Cn3cncn3)c3ccc(F)cc3F)CC2)c1 (racemic) | 16 (≈ 35.1 µM) | 16 (≈ 35.1 µM) | 64 (≈ 141 µM) | 64 (≈ 141 µM) | 64 (≈ 141 µM) | 16 (≈ 35.1 µM) | 64 (≈ 141 µM)
27 | OC(CN1CCC(=NOCc2ccccc2Cl)CC1)(Cn1cncn1)c1ccc(F)cc1F (racemic) | 0.016 (≈ 0.0336 µM) | 0.016 (≈ 0.0336 µM) | 0.004 (≈ 0.0084 µM) | 0.016 (≈ 0.0336 µM) | 0.25 (≈ 0.525 µM) | 0.0625 (≈ 0.131 µM) | 1 (≈ 2.1 µM)
28 | O=[N+]([O-])c1cccc(CON=C2CCN(CC(O)(Cn3cncn3)c3ccc(F)cc3F)CC2)c1 (racemic) | 0.0625 (≈ 0.128 µM) | 1 (≈ 2.06 µM) | 0.0625 (≈ 0.128 µM) | 1 (≈ 2.06 µM) | 1 (≈ 2.06 µM) | 0.25 (≈ 0.514 µM) | 1 (≈ 2.06 µM)
29 | OC(CN1CCC(=NOCc2cccc(C(F)(F)F)c2)CC1)(Cn1cncn1)c1ccc(F)cc1F (racemic) | 16 (≈ 31.4 µM) | 16 (≈ 31.4 µM) | 64 (≈ 126 µM) | 64 (≈ 126 µM) | 64 (≈ 126 µM) | 16 (≈ 31.4 µM) | 64 (≈ 126 µM)
30 | OC(CN1CCC(=NOCc2cccc(Br)c2)CC1)(Cn1cncn1)c1ccc(F)cc1F (racemic) | 0.016 (≈ 0.0307 µM) | 0.016 (≈ 0.0307 µM) | 0.016 (≈ 0.0307 µM) | 0.004 (≈ 0.00769 µM) | 0.25 (≈ 0.48 µM) | 0.0625 (≈ 0.12 µM) | 1 (≈ 1.92 µM)
31 | O=[N+]([O-])c1ccc(CON=C2CCN(CC(O)(Cn3cncn3)c3ccc(F)cc3F)CC2)cc1 (racemic) | 0.016 (≈ 0.0329 µM) | 0.016 (≈ 0.0329 µM) | 0.004 (≈ 0.00822 µM) | 0.004 (≈ 0.00822 µM) | 0.25 (≈ 0.514 µM) | 0.0625 (≈ 0.128 µM) | 1 (≈ 2.06 µM)
